From ChEMBL document CHEMBL3885861, “Open TG-GATES”

Organism: Rattus norvegicus
Test: Open TG-GATES - Regimen: Daily Repeat
Format: toxicity, organism-based, Sprague-Dawley
Parameters: regimen Daily Repeat, gender Male, age 6 weeks
Conditions: in vivo, po, 500 mg/kg, […], route gavage, dose level High; for KIDNEY_L / KIDNEY_R / KIDNEY_TOTAL: tissue Kidney; for LIVER: tissue Liver; for A/G / ALP / ALT / AST / BUN / CRE / Ca / Cl / DBIL / GLC / IP / K / LDH / Na / PL / RALB / TBIL / TC / TG / TP / gamma-GTP: tissue Plasma

`CN1C(=O)OC(C)(C)C1=O` [TRIMETHADIONE] was tested, and the Lym (tissue Blood, time 28 day) was 68.2%, the MCH (tissue Blood, time 28 day) was 20.6 pg and the MCHC (tissue Blood, time 28 day) was 35.7%. It also gave an MCV (tissue Blood, time 28 day) of 57.9 fL, a Mono (tissue Blood, time 28 day) of 3.4% and a Neu (tissue Blood, time 28 day) of 27.2%. For the same molecule, the PT (tissue Blood, time 28 day) was 14.5 s, the Plat (tissue Blood, time 28 day) was 103 x10_4/uL and the RBC (tissue Blood, time 28 day) was 744.8 x10_4/ul. The Ret (tissue Blood, time 28 day) was 2.3%, the WBC (tissue Blood, time 28 day) was 84.6 x10_2/uL and the KIDNEY_L (time 7 day) was 1.2 g. The KIDNEY_R (time 7 day) was 1.2 g, the KIDNEY_TOTAL (time 7 day) was 2.4 g and the KIDNEY_L (time 14 day) was 1.3 g. The KIDNEY_R (time 14 day) was 1.3 g, the KIDNEY_TOTAL (time 14 day) was 2.6 g and the KIDNEY_L (time 28 day) was 1.5 g. It also gave a KIDNEY_R (time 28 day) of 1.4 g, a KIDNEY_TOTAL (time 28 day) of 2.9 g and an LIVER (time 7 day) of 16.6 g. It also gave an LIVER (time 14 day) of 17.4 g, an LIVER (time 28 day) of 18.4 g and an A/G (time 7 day) of 0.8. The ALP (time 7 day) was 1535.2 IU/L, the ALT (time 7 day) was 62.6 IU/L and the AST (time 7 day) was 121 IU/L. For the same molecule, the BUN (time 7 day) was 16 mg/dL, the CRE (time 7 day) was 0.2 mg/dL and the Ca (time 7 day) was 10.9 mg/dL. For the same molecule, the Cl (time 7 day) was 97.2 meq/L, the DBIL (time 7 day) was 0.016 mg/dL and the GLC (time 7 day) was 179 mg/dL. It also gave an IP (time 7 day) of 7.7 mg/dL, a K (time 7 day) of 4 meq/L and an LDH (time 7 day) of 81.4 IU/L. The Na (time 7 day) was 146.2 meq/L, the PL (time 7 day) was 166.2 mg/dL and the RALB (time 7 day) was 2.8 g/dL. It also gave a TBIL (time 7 day) of 0.042 mg/dL, a TC (time 7 day) of 85 mg/dL and a TG (time 7 day) of 96.8 mg/dL. It also gave a TP (time 7 day) of 6.1 g/dL, a gamma-GTP (time 7 day) of 1.6 IU/L and an A/G (time 14 day) of 0.9. The ALP (time 14 day) was 1426.4 IU/L, the ALT (time 14 day) was 57 IU/L and the AST (time 14 day) was 117.4 IU/L. The BUN (time 14 day) was 16.8 mg/dL, the CRE (time 14 day) was 0.2 mg/dL and the Ca (time 14 day) was 10.7 mg/dL. For the same molecule, the Cl (time 14 day) was 100.6 meq/L, the DBIL (time 14 day) was 0.01 mg/dL and the GLC (time 14 day) was 181.6 mg/dL. It also gave an IP (time 14 day) of 6.7 mg/dL, a K (time 14 day) of 3.6 meq/L and an LDH (time 14 day) of 127.6 IU/L. The Na (time 14 day) was 146.2 meq/L, the PL (time 14 day) was 169.6 mg/dL and the RALB (time 14 day) was 3.1 g/dL. The TBIL (time 14 day) was 0.034 mg/dL, the TC (time 14 day) was 97.4 mg/dL and the TG (time 14 day) was 59.2 mg/dL. For the same molecule, the TP (time 14 day) was 6.5 g/dL, the gamma-GTP (time 14 day) was 1.6 IU/L and the A/G (time 28 day) was 0.9. The ALP (time 28 day) was 1105.4 IU/L, the ALT (time 28 day) was 57.8 IU/L and the AST (time 28 day) was 141.2 IU/L. It also gave a BUN (time 28 day) of 15.6 mg/dL, a CRE (time 28 day) of 0.3 mg/dL and a Ca (time 28 day) of 10.4 mg/dL. The Cl (time 28 day) was 97.8 meq/L, the DBIL (time 28 day) was 0.006 mg/dL and the GLC (time 28 day) was 176 mg/dL. For the same molecule, the IP (time 28 day) was 6.2 mg/dL, the K (time 28 day) was 3.6 meq/L and the LDH (time 28 day) was 83.2 IU/L. For the same molecule, the Na (time 28 day) was 145 meq/L, the PL (time 28 day) was 155.2 mg/dL and the RALB (time 28 day) was 3.1 g/dL. It also gave a TBIL (time 28 day) of 0.032 mg/dL, a TC (time 28 day) of 83.8 mg/dL and a TG (time 28 day) of 122.8 mg/dL. For the same molecule, the TP (time 28 day) was 6.9 g/dL and the gamma-GTP (time 28 day) was 1.4 IU/L.
